Data as given in US20200407717A1, “METHODS OF MODULATING ANTISENSE ACTIVITY” (Ionis Pharmaceuticals, Inc., priority 2018, published 2020).

System: A431 cells
Experiment: Uptake of Cy3-labeled ASO by flow cytometry, A431 cells
Assay type: cell-based
Experimental: Uptake of compound no. 446654 by A431 cells was measured by flow cytometry. A431 cells were treated with a growth factor for 4 hours prior to incubation with compound no. 446654 for 2 hours. Results are presented in the tables below as relative fluorescence units (RFU) and represent an average of three independent experiments.
Uptake of compound no. 446654 was measured in siRNA treated A431 cells via flow cytometry, as described in example 8. The results are presented in the tables below and indicate that uptake of compound no. 446654 was unaffected by EGFR expression level.

## Cy3-^mCesTesGes^mCesTesAdsGds^mCdsTds^mCdsTdsGdsGdsAdsTesTesTesGesAe (antisense CTGCTAGCCTCTGGATTTGA; listed as DNA, chemistry not fully specified) [compound 446654, Cy3-labeled PS-ASO]
0.015 μM, Control Luciferase siRNA
  RFU: 22.3 RFU
0.015 μM, EGFR siRNA-1
  RFU: 25.3 RFU
0.015 μM, EGFR siRNA-2
  RFU: 24.7 RFU
0.03 μM, Control Luciferase siRNA
  RFU: 31.3 RFU
0.03 μM, EGFR siRNA-1
  RFU: 33.0 RFU
0.03 μM, EGFR siRNA-2
  RFU: 29.0 RFU
0.06 μM, Control Luciferase siRNA
  RFU: 136 RFU
0.06 μM, EGFR siRNA-1
  RFU: 133 RFU
0.06 μM, EGFR siRNA-2
  RFU: 101 RFU
0.12 μM, Control
  RFU: 1475 RFU
0.12 μM, Control Luciferase siRNA
  RFU: 359 RFU
0.12 μM, EGF
  RFU: 1772 RFU
0.12 μM, EGFR siRNA-1
  RFU: 444 RFU
0.12 μM, EGFR siRNA-2
  RFU: 292 RFU
0.12 μM, FGF
  RFU: 1420 RFU
0.12 μM, HGF
  RFU: 1204 RFU
0.12 μM, IGF
  RFU: 1659 RFU
0.12 μM, PGF
  RFU: 1321 RFU
0.12 μM, TGF
  RFU: 1500 RFU
0.12 μM, VEGF
  RFU: 1147 RFU
0.25 μM, Control
  RFU: 1606 RFU
0.25 μM, Control Luciferase siRNA
  RFU: 806 RFU
0.25 μM, EGF
  RFU: 1917 RFU
0.25 μM, EGFR siRNA-1
  RFU: 879 RFU
0.25 μM, EGFR siRNA-2
  RFU: 852 RFU
0.25 μM, FGF
  RFU: 1682 RFU
0.25 μM, HGF
  RFU: 1481 RFU
0.25 μM, IGF
  RFU: 1435 RFU
0.25 μM, PGF
  RFU: 1275 RFU
0.25 μM, TGF
  RFU: 1871 RFU
0.25 μM, VEGF
  RFU: 1423 RFU
0.5 μM, Control
  RFU: 2223 RFU
0.5 μM, Control Luciferase siRNA
  RFU: 1392 RFU
0.5 μM, EGF
  RFU: 2349 RFU
0.5 μM, EGFR siRNA-1
  RFU: 1437 RFU
0.5 μM, EGFR siRNA-2
  RFU: 1490 RFU
0.5 μM, FGF
  RFU: 1827 RFU
0.5 μM, HGF
  RFU: 2095 RFU
0.5 μM, IGF
  RFU: 1917 RFU
0.5 μM, PGF
  RFU: 2112 RFU
0.5 μM, TGF
  RFU: 2081 RFU
0.5 μM, VEGF
  RFU: 1973 RFU
1.0 μM, Control
  RFU: 1565 RFU
1.0 μM, Control Luciferase siRNA
  RFU: 2374 RFU
1.0 μM, EGF
  RFU: 2532 RFU
1.0 μM, EGFR siRNA-1
  RFU: 2614 RFU
1.0 μM, EGFR siRNA-2
  RFU: 2906 RFU
1.0 μM, FGF
  RFU: 2414 RFU
1.0 μM, HGF
  RFU: 2533 RFU
1.0 μM, IGF
  RFU: 2237 RFU
1.0 μM, PGF
  RFU: 2487 RFU
1.0 μM, TGF
  RFU: 2826 RFU
1.0 μM, VEGF
  RFU: 2655 RFU
Time 0.25 hours, Control Luciferase siRNA
  RFU: 1082 RFU
Time 0.25 hours, EGFR siRNA-1
  RFU: 814 RFU
Time 0.25 hours, EGFR siRNA-2
  RFU: 950 RFU
Time 0.5 hours, Control Luciferase siRNA
  RFU: 1988 RFU
Time 0.5 hours, EGFR siRNA-1
  RFU: 1562 RFU
Time 0.5 hours, EGFR siRNA-2
  RFU: 1637 RFU
Time 1 hours, Control Luciferase siRNA
  RFU: 2315 RFU
Time 1 hours, EGFR siRNA-1
  RFU: 2308 RFU
Time 1 hours, EGFR siRNA-2
  RFU: 2698 RFU
Time 2 hours, Control Luciferase siRNA
  RFU: 2276 RFU
Time 2 hours, EGFR siRNA-1
  RFU: 2280 RFU
Time 2 hours, EGFR siRNA-2
  RFU: 2349 RFU
Time 4 hours, Control Luciferase siRNA
  RFU: 3103 RFU
Time 4 hours, EGFR siRNA-1
  RFU: 2854 RFU
Time 4 hours, EGFR siRNA-2
  RFU: 3069 RFU
Time 6 hours, Control Luciferase siRNA
  RFU: 4300 RFU
Time 6 hours, EGFR siRNA-1
  RFU: 3747 RFU
Time 6 hours, EGFR siRNA-2
  RFU: 3821 RFU
Time 8 hours, Control Luciferase siRNA
  RFU: 4988 RFU
Time 8 hours, EGFR siRNA-1
  RFU: 5048 RFU
Time 8 hours, EGFR siRNA-2
  RFU: 5145 RFU
Growth factor 4 hours, then compound 2 hours
  total uptake, effect of growth factor treatment: not affected in a significant, dose dependent manner
siRNA treated A431 cells
  uptake, effect of EGFR expression level: unaffected
